Read-outs that look alike come from different tables or passages of the source.
Tests used:
NHACs = experiment: calcium flux assay; assay type: cell-based, human; conditions: for Emax: read-out: (A) % Efficacy
Method in brief: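 FLIPR fluorescence (ex 470–495 nm, em 515–575 nm) was read before and after compound dispense at the indicated dose. Chondrocytes (NHACs), 2000 cells/well, had been dye-loaded 24 h after plating with Calcium 5 in HBSS/HEPES plus 5 mM probenecid, 1 h, room temperature.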

C3H10T1/2 cell line = experiment: alkaline phosphatase assay in C3H10T1/2; assay type: cell-based; conditions: alkaline phosphatase assay in C3H10T1/2, 6 days; for Emax: read-out: (D) % Efficacy; for IC50: read-out: (D) IC50
Description: To initiate differentiation in C3H10T1/2, Clone 8 (ATCC cat #CCL-226), 4,000 cells were plated/well in 384 Perkin Elmer CellCarrier Ultra plate in DMEM/High glucose (HyClone cat #SH30022.01) containing 10% FBS and 1× Antibiotic/Antimycotic (HyClone cat #SV30079.01). After 24 hours the test compound was then added to each well at the indicated dose. The cultures were grown at 37° C. for 6 days.
To detect the presence of hypertrophic cells, C3H10T1/2 were fixed with 4% paraformaldehyde and Hoeschst dye for 20 minutes, rinsed in PBS, then stained with Fast Blue RR Salt with Naphthol AS-MX Phosphate Alkaline Solution.
The ALP staining was imaged by fluoresecent microscopy, using the 561 wavelength, and/or quantified by high content imagining with the ImageXpress Micro Confocal (Molecular Devices, Sunnyvale, CA). Data analyses were performed with the customized multiwavelength cell-scoring application looking at the number of ALP positive cells per well.

[1] = test system: normal human articular chondrocytes (NHACs); experiment: alkaline phosphatase assay in NHAC; assay type: cell-based; conditions: 10 days; for IC50: read-out: (C) IC50
Description: To initiate differentiation in NHACs, 16,000 cells were plated/well in Costar 96 well plate in CGM media (Lonza). After 24 hours the MSCGM was removed and replaced with DMEM containing 1% FBS. The test compound was then added to each well at the indicated dose. The cultures were grown at 37° C. for 10 days.
To detect the presence of hypertrophic cells, NHACs were fixed with 10% formalin and Hoeschst dye for 20 minutes, rinsed in PBS, then stained with Fast Blue RR Salt with Naphthol AS-MX Phosphate Alkaline Solution.
The total intensity of staining was imaged by fluoresecent microscopy, using the 651 wavelength, and/or quantified by high content imagining with the ImageXpress Micro (Molecular Devices, Sunnyvale, CA). Data analyses were performed with the customized multiwavelength cell-scoring application.

[2] = Mus musculus, C3H 10T1/2, 144 h

Row | EC50 (NHACs; Homo sapiens) [µM] | IC50 (C3H10T1/2 cell line; [2]) [µM] | SMILES | Emax (NHACs; Homo sapiens) [%] | Emax (C3H10T1/2 cell line; [2]) [%] | further results
1 | > 50 | > 20 | Cc1cc([C@H]2[C@H]3O[C@H](C[C@@H]3O)[C@@H]2C(=O)NC2CCN(S(C)(=O)=O)CC2)ccn1 [Example 79, (1R,2R,3S,4R,5S)-5-hydroxy-3-(2-methylpyridin-4-yl)-N-(1-(methylsulfonyl)piperidin-4-yl)-7-oxabicyclo[2.2.1]heptane-2-carboxamide] | 113 | 34 | 
2 | 2.8 | 17 | O=C(Nc1cnc(Cl)c(Cl)c1)[C@H]1[C@@H]2O[C@@H]([C@H]3C[C@H]32)[C@@H]1c1ccnc(F)c1F [Example 124, (1S,2S,4R,5R,6R,7S)—N-(5,6-dichloropyridin-3-yl)-7-(2,3-difluoropyridin-4-yl)-8-oxatricyclo[3.2.1.0^2,4]octane-6-carboxamide] | 160 | 59 | 
3 | 21 | > 20 | Cc1cc([C@H]2[C@H]3O[C@H]([C@@H]4C[C@@H]43)[C@@H]2C(=O)Nc2cccc(OC(F)(F)F)c2)ccn1 [Example 69, (1S,2S,4R,5R,6R,7S)-7-(2-methylpyridin-4-yl)-N-(3-(trifluoromethoxy)phenyl)-8-oxatricyclo[3.2.1.0^2,4]octane-6-carboxamide] | 180 | 63 | 
4 | 20 | > 20 | Cc1cc([C@@H]2[C@@H](C(=O)Nc3ccc(Cl)c(Cl)c3)[C@@H]3O[C@H]2C[C@H]3O)ccn1 (single isomer, unassigned) [Example 77b] | 157 | 47 | 
5 | 6 | > 20 | COc1cc([C@H]2[C@H]3O[C@H](C[C@H]3F)[C@@H]2C(=O)Nc2ccc(Cl)c(Cl)c2)ccn1 [Example 165, (1R,2R,3S,4R,5R)—N-(3,4-dichlorophenyl)-5-fluoro-3-(2-methoxypyridin-4-yl)-7-oxabicyclo[2.2.1]heptane-2-carboxamide] | 110 | 59 | 
6 | 25 | 1.8 | COc1cc([C@H]2[C@H]3O[C@H](C[C@@H]3O)[C@@H]2C(=O)Nc2ccc(Cl)c(Cl)c2)ccn1 (single isomer, unassigned) [Example 139a] | 275 | 54 | 
7 | > 50 | > 20 | Cc1cc([C@H]2[C@H]3O[C@H](C[C@H]3NC3CCOCC3)[C@@H]2C(=O)Nc2ccc(Cl)c(Cl)c2)ccn1 [Example 169, (1R,2R,3S,4R,5R)—N-(3,4-dichlorophenyl)-3-(2-methylpyridin-4-yl)-5-((tetrahydro-2H-pyran-4-yl)amino)-7-oxabicyclo[2.2.1]heptane-2-carboxamide] | 69 | 54 | 
8 | 3.5 | > 20 | O=C(Nc1ccc(Cl)c(Cl)c1)[C@H]1[C@@H](c2ccnc(C(F)(F)F)c2)[C@H]2O[C@@H]1C[C@@H]2O (single isomer, unassigned) [Example 54a] | 45 | 35 | 
9 | > 50 | > 20 | Cc1cc([C@H]2[C@H]3O[C@H](C[C@@H]3O)[C@H]2C(=O)Nc2cccc(C(F)(F)F)c2)ccn1 [Example 8, (1R,2S,3S,4R,5S)-5-hydroxy-3-(2-methylpyridin-4-yl)-N-[3-(trifluromethyl)phenyl]-7-oxabicyclo[2.2.1]heptane-2-carboxamide] | 50 | 16 | Emax ([1]; Homo sapiens, Chondrocyte, 240 h, read-out: (C) % Efficacy): 62%; IC50 ([1]; Homo sapiens, Chondrocyte, 240 h): > 31 µM
10 | 2.7 | 4.5 | Cc1cc([C@H]2[C@H]3O[C@H]([C@@H]4C[C@@H]43)[C@@H]2C(=O)Nc2cccc(C(F)(F)F)c2)ccn1 (single isomer, unassigned) [Example 121a] | 231 | 80 | 
11 |  |  | O=C(Nc1ccc(Cl)c(Cl)c1)[C@@H]1[C@@H]2O[C@@H]([C@H]3C[C@H]32)[C@@H]1c1cncnc1 [Example 27] |  |  | (A) % Efficacy (NHACs): 120%; EC50 (NHACs): 13 µM; (C) % Efficacy [1]: 71%; IC50 [1]: 34 µM; (D) % Efficacy (C3H10T1/2 cell line): 48%; IC50 (C3H10T1/2 cell line): > 20 µM
12 | > 50 | > 20 | COc1ccc(NC(=O)[C@H]2[C@@H]3O[C@@H]([C@H]4C[C@H]43)[C@@H]2c2ccc(C)nc2)cn1 [Example 123, (1S,2S,4R,5R,6R,7S)—N-(6-methoxypyridin-3-yl)-7-(6-methylpyridin-3-yl)-8-oxatricyclo[3.2.1.0^2,4]octane-6-carboxamide] | 0 | 48 | 
13 | 19 | > 20 | Cn1ccc([C@H]2[C@H]3O[C@H](C[C@@H]3O)[C@@H]2C(=O)Nc2ccc(Cl)c(Cl)c2)n1 [Example 153, (1R,2R,3S,4R,5S)—N-(3,4-dichlorophenyl)-5-hydroxy-3-(1-methyl-1H-pyrazol-3-yl)-7-oxabicyclo[2.2.1]heptane-2-carboxamide] | 121 | 46 | 
14 | > 50 | > 20 | O=C(Nc1ccc(Cl)c(Cl)c1)[C@H]1[C@@H](c2ccnc(C(F)(F)F)c2)[C@H]2O[C@@H]1C[C@@H]2O (racemic) [Example 54, rac-(1R,2S,3S,4R,5S)—N-(3,4-dichlorophenyl)-5-hydroxy-3-(2-(trifluoromethyl)pyridin-4-yl)-7-oxabicyclo[2.2.1]heptane-2-carboxamide] | 22 | 35 | 
15 | 0.32 | > 20 | Cc1cc([C@H]2[C@H]3O[C@H](C[C@H]3NCCO)[C@@H]2C(=O)Nc2ccc(Cl)c(Cl)c2)ccn1 [Example 168, (1R,2R,3S,4R,5R)—N-(3,4-dichlorophenyl)-5-((2-hydroxyethyl)amino)-3-(2-methylpyridin-4-yl)-7-oxabicyclo[2.2.1]heptane-2-carboxamide] | 114 | 0 | 
16 | 24 | > 20 | Cc1cc([C@H]2[C@H]3O[C@H](C[C@H]3N(C)C)[C@@H]2C(=O)Nc2ccc(Cl)c(Cl)c2)ccn1 [Example 166, (1R,2R,3S,4R,5R)—N-(3,4-dichlorophenyl)-5-(dimethylamino)-3-(2-methylpyridin-4-yl)-7-oxabicyclo[2.2.1]heptane-2-carboxamide] | 68 | 0 | 
17 | 20 | 4.4 | O=C(Nc1ccc(Cl)c(Cl)c1)[C@H]1[C@@H]2O[C@@H]([C@H]3C[C@H]32)[C@@H]1c1cccc(C(F)(F)F)n1 [Example 120, (1S,2S,4R,5R,6R,7S)—N-(3,4-dichlorophenyl)-7-(6-(trifluoromethyl)pyridin-2-yl)-8-oxatricyclo[3.2.1.0^2,4]octane-6-carboxamide] | 102 | 119 | 
18 | > 50 | > 20 | Cc1cc([C@H]2[C@H]3O[C@H]([C@@H]4C[C@@H]43)[C@@H]2C(=O)Nc2ncc(C)s2)ccn1 [Example 70, (1S,2S,4R,5R,6R,7S)-7-(2-methylpyridin-4-yl)-N-(5-methylthiazol-2-yl)-8-oxatricyclo[3.2.1.0^2,4]octane-6-carboxamide] | 25 | 1 | 
19 | 33 | > 20 | Cc1cc([C@H]2[C@H](C(=O)Nc3ccc(Cl)c(Cl)c3)[C@H]3O[C@@H]2C[C@@H]3O)ccn1 [Example 77d, (1R,2S,3R,4R,6S)-N-(3,4-dichlorophenyl)-6-hydroxy-3-(2-methylpyridin-4-yl)-7-oxabicyclo[2.2.1]heptane-2-carboxamide] | 92 | 54 | 
20 | 26 | 8.3 | Nc1cc([C@H]2[C@H]3O[C@H](C[C@@H]3O)[C@@H]2C(=O)Nc2ccc(Cl)c(Cl)c2)ccn1 [Example 149, (1R,2R,3S,4R,5S)-3-(2-aminopyridin-4-yl)-N-(3,4-dichlorophenyl)-5-hydroxy-7-oxabicyclo[2.2.1]heptane-2-carboxamide] | 112 | 58 | 
21 | 24 | 10 | COc1cc([C@H]2[C@H]3O[C@H](C[C@@H]3F)[C@@H]2C(=O)Nc2ccc(Cl)c(Cl)c2)ccn1 [Example 103, (1R,2R,3S,4R,5S)—N-(3,4-dichlorophenyl)-5-fluoro-3-(2-methoxypyridin-4-yl)-7-oxabicyclo[2.2.1]heptane-2-carboxamide] | 153 | 79 | 
